Patent publication US12370235B2, “Synthetic, non-natural antimicrobial peptides inspired by Staphylococcus auricularis delta toxin” (University of Saskatchewan, priority 2021, dated 2025)
Ends that are not written are not given here.

Key:
[1] = tested on: Klebsiella pneumoniae; experiment: SYTOX Green membrane integrity assay; type: cell-based; settings: 25 μg/mL; resistant strain
[2] = tested on: 3D EpiDerm skin tissues; experiment: Peptide cytotoxicity, 3D EpiDerm skin tissues, alamarBlue; type: cell-based, human; settings: 250 μg/mL, 24 h
Method: Peptide cytotoxicity. In vitro cytotoxicity was measured using the 3D EpiDerm skin tissues and HeLa Cells using a fluorescent reporter of cell viability, alamarBlue (ThermoFisher Scientific). 3D EpiDerm skin tissues (MatTek EPI-200-AFAB) were transferred to a 12 well plate containing 600 μL of AFAB-assay medium supplemented with 10% v/v alamarBlue. […] HeLa cells were seeded in a 96-well plate (2×10^4 cells/per well) and incubated overnight at 37° C. and 5% CO2 in a humidified incubator to prepare wells at ˜50% confluency of adherent cells. After the incubation, spent DMEM was removed and cells were washed with PBS. alamarBlue-containing medium was prepared by mixing Phenol Red-free DMEM with alamarBlue solution at a 9:1 ratio and a 180 μl volume was added to each well. Cells were treated with peptides varying from 3.25 to 200 μg/mL and then incubated for 24 h. The fluorescence intensities of treated cultures were normalized to values measured for an untreated control group. After the 24 h incubation period, alamarBlue fluorescence was measured at 590 nm upon excitation at 560 nm using Varioskan Lux plate reader (Thermo Scientific) plate reader.

[3] = tested on: Saccharomyces cerevisiae AR 400; experiment: MIC, YPD broth, CDC and FDA AR Candida isolate panel; type: cell-based; settings: Table 9 top part: titrations from 1.56 to 100 μg/mL
Summary of the method: (§1)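 Using peptides at 95% purity, yeast suspensions adjusted to an optical density of […] received two-fold diluted peptide, were held static overnight at 37° C, and were compared against sterile-water controls.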

[4] = tested on: Candida krusei AR 397; experiment: as above; type: cell-based; settings: Table 9 top part: titrations from 1.56 to 100 μg/mL
Summary of the method: as §1

[5] = tested on: MRSA ATCC 33592; experiment: Three-dimensional NHEK skin model of MRSA infection and treatment; type: cell-based, Staphylococcus aureus
Method: To begin to assess the potential utility of STIP3-29 as a topical antimicrobial agent, the ability of the peptide to control MRSA infections of three-dimensional epidermal skin model prepared from normal, human-derived epidermal keratinocytes (NHEK) in vitro was evaluated. The multilayered and highly differentiated tissue was colonized with MRSA 33952 through a 4 h exposure to 5×10^5 CFU before removing non-adherent cells. It was observed that ˜7×10^3 CFU (−1%) of the MRSA cells colonized the tissues, and that the population expanded by 4-log units in a 16 h period (FIG. 6A). […] Amidation of the C-terminus is correlated with an increase in red blood cell lysis, observed by comparing of STIP3-1 to STIP3-28 and STIP3-3 to STIP3-29 whereas the inclusion of D-amino acids reduced the hemolytic activity.
Three-dimensional tissue infection and treatment. 3D EpiDerm skin tissues (MatTek EPI-200-AFAB; antifungal & antibiotic-free; 9 mm) contained within a plastic insert lined with a permeable 0.4 μm membrane were transferred to a 12 well plate containing dye- and antibiotic assay medium (600 μl per well). […] The number of colonies on each plated were counted and an average CFU/mL was determined for treated and untreated samples. […]

[6] = tested on: HeLa cells; type: cell-based; settings: 24 h, alamarBlue
Summary of the method: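 HeLa cells (2×10^4/well, ~50% confluent) in phenol red-free DMEM with alamarBlue (9:1) treated 24 h with peptides at 3.25-200 μg/mL; fluorescence at ex 560/em 590 nm normalized to untreated controls. 3D EpiDerm tissues in AFAB-assay medium with 10% v/v alamarBlue.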

[7] = tested on: MRSA ATCC 33592; experiment: SYTOX Green membrane integrity assay; type: cell-based, Staphylococcus aureus; settings: one fourth to four-fold the MIC
Method: Membrane disruption and depolarization are commonly reported mechanisms of AMP action. Two indirect assays that rely on fluorescent dyes were employed to assess the interaction of STIP3-29 and D-STIP3-29 with bacterial membranes. First, changes to SYTOX fluorescence was measured when MRSA ATCC 33592 was treated with increasing peptide concentrations ranging from one fourth to four-fold the MIC. […] Next, DiSC3(5), a cationic dye that binds to polarized membranes was used to report on possible depolarization related to AMP treatment. […] Thus, without wishing to be bound by theory, a more conservative explanation of the results is that the cationic peptides increase membrane permeability to SYTOX and that the like-charge of the AMPs to the reporter of polarization may confound the interpretation of the indirect assay. For example, the AMPs may simply displace the self-quenching DiSC3(5) molecules from the membrane surface without causing depolarization.

[8] = Circular dichroism spectroscopy; type: physicochemical; settings: CD, 50% (v/v) TFE
Summary of the method: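 Secondary structure of peptides dissolved in water at 0.3–0.5 mg/mL was assessed by CD. Spectra were recorded from 180 to 260 nm at room temperature in a 0.1 cm quartz cuvette; water and 50% (v/v) TFE conditions were compared.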

Substance: TVGGLVKWILKTVKKFA-NH2 [STIP3-29, TVGGLVKWILKTVKKFA-NH2]
- SYTOX entry [1]: SYTOX was slow to enter
- indirect measure of tissue health (alamarBlue) [2]: appeared to be unaffected
- MIC (μg/mL) Saccharomyces cerevisiae AR 400 [3]: 25 µg/mL
- MIC (μg/mL) Candida krusei AR 397 [4]: 50 µg/mL
- control of MRSA population on 3D epidermal tissue ([5]; 25 μg/ml after colonization, 16 h): prevented the expansion of the MRSA population
- average bacterial density ([5]; tissues treated with 25 μg/mL (n=6), infected at 7×10^3 CFU/mL, untreated 9×10^7 CFU/mL): 6×10^3 CFU/mL
- IC50, HeLa cell survival [6]: 56 ± 1 µg/mL
- SYTOX fluorescence change [7]: rapid and concentration dependent increase in SYTOX fluorescence
- α helicity (%) [8]: 61%
